US20250161212A1, “LIQUID PHARMACEUTICAL FORMULATION OF OMEPRAZOLE OR ESOMEPRAZOLE” (ALKALOID AD SKOPJE, priority 2022, published 2025)

Assay: Stability study of esomeprazole sodium dissolved in DMSO stored at 25° C. (impurities)
Format: physicochemical
Description: Example 9—Stability Study Stability results for esomeprazole sodium dissolved in DMSO stored at 25° C.: • Key: • Imp D: omeprazole impurity D: [drawing 3] • RRT: Relative retention time.

[1] = 1.5 months, second table, Imp-s > 0.02%
[2] = 3 months, second table, Imp-s > 0.02%
[3] = 5 months, second table, Imp-s > 0.02%
[4] = 9 months, second table, Imp-s > 0.02%
[5] = 13 months, second table, Imp-s > 0.02%
[6] = Initial, second table, Imp-s > 0.02%
[7] = in DMSO, 25° C., 1.5 months, first table
[8] = in DMSO, 25° C., 5 months, first table
[9] = in DMSO, 25° C., Initial, first table

Total impurities (1.5 months, second table): 0.14%
Imp D (omeprazole impurity D) [1]: 0.03%
impurity RRT 1.23 [1]: 0.03%
Total impurities (3 months, second table): 0.17%
Imp D (omeprazole impurity D) [2]: 0.03%
impurity RRT 1.23 [2]: 0.03%
Total impurities (5 months, second table): 0.16%
Imp D (omeprazole impurity D) [3]: 0.03%
impurity RRT 1.17 [3]: 0.03%
Total impurities (9 months, second table): 0.25%
Imp D (omeprazole impurity D) [4]: 0.03%
impurity RRT 0.53 [4]: 0.03%
impurity RRT 1.23 [4]: 0.03%
impurity RRT 1.31 [4]: 0.03%
Total impurities (13 months, second table): 0.36%
Imp D (omeprazole impurity D) [5]: 0.03%
impurity RRT 0.54 [5]: 0.04%
impurity RRT 0.90 [5]: 0.04%
impurity RRT 1.23 [5]: 0.03%
impurity RRT 1.31 [5]: 0.04%
impurity RRT 1.32 [5]: 0.03%
Total impurities (Initial, second table): 0.12%
Imp D (omeprazole impurity D) [6]: 0.03%
impurity RRT 1.23 [6]: 0.03%
Imp D (omeprazole impurity D) [7]: Imp D = 0.03%
Total impurities [7]: Total = 0.14%
impurity RRT 1.23 [7]: RRT 1.23 = 0.03%
Imp D (omeprazole impurity D) [8]: Imp D = 0.03%
Total impurities [8]: Total = 0.15%
impurity RRT 0.57 [8]: RRT 0.57 = 0.02%
impurity RRT 1.14 [8]: RRT 1.14 = 0.02%
impurity RRT 1.17 [8]: RRT 1.17 = 0.03%
impurity RRT 1.23 [8]: RRT 1.23 = 0.02%
Imp D (omeprazole impurity D) [9]: Imp D = 0.03%
Total impurities [9]: Total = 0.12%
impurity RRT 1.19 [9]: RRT 1.19 = 0.02%
impurity RRT 1.23 [9]: RRT 1.23 = 0.03%
SMILES: COc1ccc2nc([S@@+]([O-])Cc3ncc(C)c(OC)c3C)[nH]c2c1 (single isomer, unassigned) [esomeprazole sodium]
